From PubChem BioAssay (NCI)
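Grown in 96-well plates, cells were treated for 48 hours with each compound at five concentrations. Insufficient inhibition: endpoint recorded as highest concentration tested. TGI: concentration producing complete growth inhibition.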

Columns and labels:
Test in all cases: NCI anticancer screen, dose series, 48 h
DLD-1 colon = test system: DLD-1 colon
DMS 114 small cell lung = test system: DMS 114 small cell lung
M19-MEL melanoma = test system: M19-MEL melanoma
XF 498 CNS = test system: XF 498 CNS
KM20L2 colon = test system: KM20L2 colon
LXFL 529 NSCLC = test system: LXFL 529 NSCLC
SNB-78 CNS = test system: SNB-78 CNS
RXF-631 renal = test system: RXF-631 renal
HOP-18 NSCLC = test system: HOP-18 NSCLC

Compound	TGI (DLD-1 colon)	TGI (DMS 114 small cell lung)	TGI (M19-MEL melanoma)	TGI (XF 498 CNS)	TGI (KM20L2 colon)	TGI (LXFL 529 NSCLC)	TGI (SNB-78 CNS)	TGI (RXF-631 renal)	TGI (HOP-18 NSCLC)
Nc1ccc2nc(Nc3ccc(F)cc3)cnc2c1	> 100 µM	> 100 µM	> 100 µM	> 100 µM					
COc1cccc(NC(=O)/C(CC(=O)CC(c2ccccc2)c2c(O)c3ccccc3oc2=O)=N\NC(C)(C)C)c1OC (stereo not given)	> 100 µM	> 100 µM	> 100 µM		> 100 µM	> 100 µM	> 100 µM		
CC(=O)OC[C@]1(O)CC[C@@]23CC1C[C@@H]2CCC1C(C)(C)CCC[C@@]13C (stereo not given in full)	28.8 µM	25.3 µM	29.4 µM	27.2 µM	31.7 µM	23.2 µM	32.7 µM	27.3 µM	
CC(=O)OC1COC(Nc2ccc(C(C)=O)cc2)C(OC(C)=O)C1OC(C)=O (stereo not given)	> 100 µM	> 100 µM	> 100 µM		> 100 µM	> 100 µM	> 100 µM	> 100 µM	> 100 µM
COc1ccc(C(=O)Cc2c(C(=O)c3ccccc3)c3ccccc3n2C(=O)c2ccccc2)cc1	> 100 µM	> 100 µM	> 100 µM	> 100 µM	> 100 µM	> 100 µM			
CCN=C(NNc1ccc([N+](=O)[O-])cc1)P(=O)(OC(C)C)OC(C)C	> 100 µM	> 100 µM	> 100 µM	> 100 µM	> 100 µM	> 100 µM	> 100 µM		
Clc1ccc2c(c1)C1C(CO2)C(c2ccccc2)=NN1c1ccccc1 (stereo not given)	> 100 µM	77.5 µM	> 100 µM	59 µM	> 100 µM	> 100 µM	> 100 µM		50.8 µM
COC(=O)N1CCc2c(nc(N(C)CCO)[nH]c2=O)C1	> 100 µM	> 100 µM	> 100 µM	> 100 µM	> 100 µM	> 100 µM	> 100 µM		> 100 µM
